Experimental data from publication PMC11672299, “Conjugation of Polycationic Peptides Extends the Efficacy Spectrum of β‐Lactam Antibiotics” (Advanced Science, 2024).

Test system: E. casseliflavus (ATCC 700 327)
Experiment: Spontaneous resistance rate
Assay type: cell-based
Conditions: E. casseliflavus ATCC 700 327, agar with 16 µg mL^−1 CTZ‐R6
Experimental: The rate of spontaneous resistance of E. casseliflavus (ATCC 700 327) against CTZ‐R6 was investigated as previously described.^[ [33] ^] A bacterial suspension of ATCC 700 327 was adjusted to an OD600 of 1 with 0.9% NaCl, corresponding to a theoretical concentration of 2 × 10^8 CFU mL^−1. 250 µL of the suspension were plated on 10 cation‐adjusted MHB II agar plates containing 16 µg mL^−1 CTZ‐R6 and incubated at 37 °C for 18 h. As concentration control, the bacterial inoculum (OD600 = 1) was diluted and plated on antibiotic‐free cation adjusted MHB II agar plates and incubated at 37 °C for 18 h. The number of colonies on both types of plates was counted and the spontaneous resistance rate was calculated accordingly: (2) SpontaneousResistanceRate=#coloniesonantibioticplates/#coloniesoncontrolplatexdilutionfactorx2.5

## CC(C)(O/N=C(\C(=O)N[C@@H]1C(=O)N2C(C(=O)[O-])=C(C[n+]3ccccc3)CS[C@H]12)c1csc(N)n1)C(=O)NCCCCCCN1C(=O)CC(SC[C@H](NC(=O)[C@H](CCCNC(=N)N)NC(=O)[C@H](CCCNC(=N)N)NC(=O)[C@H](CCCNC(=N)N)NC(=O)[C@H](CCCNC(=N)N)NC(=O)[C@H](CCCNC(=N)N)NC(=O)[C@@H](N)CCCNC(=N)N)C(N)=O)C1=O (stereo partly shown) [CTZ-R6]
  spontaneous resistance rate: < 2.7 × 10^−9
